Columns and labels:
[1] = tested on: TLR 7; assay: TLR 7 transcription ratio, AD patient / control PBMCs (qPCR); assay type: cell-based, human; settings: Aβ stimulation
Procedure: (§1) qPCR reactions of cultured monocyte cDNAs. One μL total cellular cDNA per reaction is used in triplicate reactions for each test gene, and for each culture treatment. SYBR-Green reactions were run on a Continuous Fluorescence real-time thermocycler and analyzed. Cycle threshold (Ct) values are recorded for each replicate reaction, and are then averaged and normalized against mean Ct values from one or more control genes. Fold-expression differences relative to untreated cells are determined using the 2^−ΔΔCt method as previously described. Data from the curcumin concentration range are plotted in order to determine EC50 values (concentrations producing one-half maximal stimulant activity), which are used for comparisons of potency between different compounds. Data are also evaluated for each gene with regard to sensitivity, maximally effective concentration of curcuminoid, response to Aβ, and overall magnitude of fold-expression changes.
(§2) MGAT3 and/or TLR transcription were tested by qPCR in human monocyte cells treated with curcuminoids and compared the results to those treated with vehicle (Table 7). As discussed above, activation or up-regulation of macrophage MGAT3 or TLR's results in many functional outcomes, including the enhancement of […] and removal of Aβ, increased apoptosis, secretion of inflammatory cytokines, and other anti-AD antimicrobial activities. […]

[2] = tested on: TLR 10; assay: TLR 10 transcription ratio, AD patient / control PBMCs (qPCR); assay type: cell-based, human; settings: Aβ stimulation
Procedure: as §1, §2

## O=C(/C=C(O)/C=C/c1ccc(O)cc1)/C=C/c1ccc(O)cc1 [Compound 1, 5-Hydroxy-1,7-bis-(4-hydroxy-phenyl)-hepta-1,4,6-trien-3-one, reference compound]
[1]
  Relative ratio of TLR 7 transcription in AD patient / control PBMC's: TLR 7 ++ ((++) indicates a ratio of 1.5-2.0)
[2]
  Relative ratio of TLR 10 transcription in AD patient / control PBMC's: TLR 10 ++ ((++) indicates a ratio of 1.5-2.0)

Reference: patent publication US20120040976A1, “SMALL MOLECULE IMMUNOMODULATORS FOR ALZHEIMER'S DISEASE” (HUMAN BIOMOLECULAR RESEARCH INSTITUTE, priority 2008, published 2012)
